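Growth conditions: 96-well plates. Treatment: test compound, 48 hours, 5 concentrations. Analysis: linear interpolation between bracketing concentrations; unreached endpoints set to highest concentration. GI50 marks 50% less growth.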 The source made the active and inactive calls. No stated cut-off is given here; in the data, active = GI50 up to about 1.1 µM and inactive = higher.
Tests used:
Test in all cases: NCI-60 cell line screen, 48 h
ACHN = system: ACHN
CCRF-CEM = system: CCRF-CEM
COLO 205 = system: COLO 205
HOP-62 = system: HOP-62
HOP-92 = system: HOP-92
HT-29 = system: HT-29
IGROV-1 = system: IGROV-1
KM12 = system: KM12
LXFL 529 = system: LXFL 529
M19-MEL = system: M19-MEL
NCI-H23 = system: NCI-H23
OVCAR-8 = system: OVCAR-8
RPMI-8226 = system: RPMI-8226
SF-268 = system: SF-268
SK-MEL-28 = system: SK-MEL-28
SK-MEL-2 = system: SK-MEL-2
SR = system: SR
TK-10 = system: TK-10
UACC-257 = system: UACC-257
UO-31 = system: UO-31

Measured: GI50

COc1ccc(C2C(Cl)C(=O)N2NC(=O)c2ccc(NC(C)=O)cc2)cc1OC (stereo not given)
inactive: ACHN > 100 µM | CCRF-CEM > 100 µM | COLO 205 > 100 µM | HOP-62 > 100 µM | HOP-92 > 100 µM | HT-29 > 100 µM | IGROV-1 > 100 µM | KM12 > 100 µM | LXFL 529 > 100 µM | M19-MEL > 100 µM | NCI-H23 > 100 µM | OVCAR-8 > 100 µM | RPMI-8226 > 100 µM | SF-268 > 100 µM | SK-MEL-28 > 100 µM | SK-MEL-2 > 100 µM | SR > 100 µM | TK-10 > 100 µM | UACC-257 > 100 µM | UO-31 > 100 µM

CCn1cnnc1-c1nsc2ccccc12
inactive: ACHN > 100 µM | CCRF-CEM > 100 µM | COLO 205 > 100 µM | HOP-62 > 100 µM | HOP-92 45.3 µM | HT-29 > 100 µM | IGROV-1 > 100 µM | KM12 > 100 µM | LXFL 529 > 100 µM | M19-MEL > 100 µM | NCI-H23 > 100 µM | OVCAR-8 > 100 µM | RPMI-8226 > 100 µM | SF-268 > 100 µM | SK-MEL-28 > 100 µM | SK-MEL-2 > 100 µM | SR > 100 µM | TK-10 > 100 µM | UACC-257 > 100 µM | UO-31 > 100 µM

Nc1c(-c2ccccc2[N+](=O)[O-])nc2ccccn12
inactive: ACHN > 100 µM | CCRF-CEM > 100 µM | COLO 205 > 100 µM | HOP-62 > 100 µM | HOP-92 > 100 µM | HT-29 > 100 µM | IGROV-1 > 100 µM | KM12 > 100 µM | LXFL 529 > 100 µM | M19-MEL > 100 µM | NCI-H23 > 100 µM | OVCAR-8 > 100 µM | RPMI-8226 > 100 µM | SF-268 > 100 µM | SK-MEL-28 > 100 µM | SK-MEL-2 > 100 µM | SR > 100 µM | TK-10 > 100 µM | UACC-257 > 100 µM | UO-31 > 100 µM

Source: ChEMBL document CHEMBL1201862, “PubChem BioAssay data set” (2004)
